Measurements taken from PMC4992440 (ACS chemical biology, 2016).
Like-named read-outs stand apart in the source and are kept apart here. One block for each molecule: values may come before it.

What was measured:
[1] = Serum / plasma protein binding; format: in vitro ADME, mouse
[2] = system: p-HDAC5 (Ser259) in BMDMs; experiment: HDAC5 Ser259 phosphorylation in LPS-stimulated BMDMs; format: cell-based, mouse; conditions: 1 μM, 6 hr pre-incubation, LPS 30 min
[3] = system: IL-10 production in Zymosan A-stimulated BMDCs; experiment: IL-10 production by Zymosan A-stimulated BMDCs; format: cell-based, mouse; conditions: read-out: IL-10 EC50, mean ± SD from ≥ 2 independent experiments
[4] = Mouse liver microsome stability; conditions: mouse liver microsomes; 1 independent experiment
BMDCs = experiment: Cellular cytotoxicity in Zymosan A-stimulated BMDCs; format: cell-based, mouse
[5] = mouse, microsomes
C57BL/6 mice = experiment: Daily dosing for 1 week in mice: weight, serum triglycerides, adiponectin; format: in vivo, mouse; conditions: wild-type mice, daily for 1 week
[6] = system: LPS-stimulated C57BL/6 mice; format: in vivo; conditions: mouse
PBS solubility = format: physicochemical
[7] = Pharmacokinetics after IP administration in mice; format: in vivo; conditions: mouse
[8] = system: TNFα, IL-6, IL-12p40, IL-1β in BMDCs; experiment: Inflammatory cytokine production by Zymosan A-stimulated BMDCs; format: cell-based, mouse; conditions: 1 μM 24 hr, Zymosan A 18 hr
[9] = system: Il10 and Nurr77 transcripts in BMDCs; experiment: CREB target gene transcripts in LPS-stimulated BMDCs; format: cell-based, mouse; conditions: 1 μM, 24 hr pre-treatment

serum bound [1]: > 99%
EC50 [3]: 220 ± 90 nM
MLM t1/2 [4]: 0.183 h
Compound: COc1ccc(N(C(=O)Nc2c(C)cccc2C)c2cc(Nc3ccc(N4CCN(C)CC4)cc3)ncn2)c(OC)c1 [Compound 1, reference compound]
LPS stimulated phosphorylation of HDAC5 at Ser259 [2]: reduces

EC50 [3]: 11 ± 1 nM
MLM t1/2 [4]: 0.45 h
Compound: COc1ccc(N2C(=O)N(c3c(C)cccc3Cl)Cc3cnc(Nc4ccc(N5CCN(C)CC5)cc4)nc32)nc1 [Compound 3]
toxicity in BMDCs (in words) (BMDCs): significantly elevated toxicity

Compound: COc1ccc(N2C(=O)N(c3c(C)cccc3Cl)Cc3cnc(Nc4ccc(C5CCN(C)CC5)cc4OC)nc32)nc1 [Compound 5]
MLM t1/2 [5]: >2 h
tolerability of daily injections (C57BL/6 mice): well tolerated
LPS stimulated phosphorylation of HDAC5 at Ser259 [2]: reduced
LPS-induced increase in Il6 mRNA in colon ([6]; IP 20 mg/Kg): not affected
serum IL-6 levels ([6]; IP 20 mg/Kg, LPS): moderately decreased
increase of serum IL-10 levels ([6]; IP 20 mg/Kg, LPS 1 hour): > 2 fold
Tnf transcript in colon ([6]; IP 20 mg/Kg, throughout the experiment): reduced
phosphorylation of HDAC5 at Ser259 in total splenic leukocytes ([6]; IP 5 – 50 mg/Kg, 15 min before LPS 1 hour): dose dependently decreased
abundance of TNFα in serum ([6]; IP, beginning at 5 mg/Kg, LPS 1 hour): dose-dependently reduced
phosphorylation of HDAC5 at Ser259 in total splenic leukocytes, immunoblotting ([6]; IP, beginning at the 20 mg/Kg dose): below the limit of detection
concentrations at which non-toxic (BMDCs): ≤ 10 µM
EC50 [3]: 460 ± 110 nM
PBS solubility (PBS solubility): 428 ± 11 µM
changes in viability, activity or grooming ([7]; IP 20 mg/Kg, 24 hour treatment period): no obvious changes
clearance t1/2 ([7]; IP, 20 mg/Kg, serum): > 7 h
IL-1β release [8]: only modestly enhanced
IL-6 production [8]: suppressed
IL-12p40 production [8]: suppressed
TNFα production [8]: suppressed
Il10 transcript level [9]: increased
Nurr77 transcript level [9]: increased
